Patent publication US20230150924A1, “NOVEL COMPOUND HAVING CANCER METASTASIS INHIBITORY ACTIVITY, PREPARATION METHOD THEREFOR, AND PHARMACEUTICAL COMPOSITION FOR INHIBITING CANCER METASTASIS AND INVASION OR TREATING COLORECTAL CANCER, COMPRISING COMPOUND” (CELLGENTEK CO., LTD., priority 2019, published 2023)

How the values were obtained:
KAI1 promoter = KAI1 promoter luciferase reporter assay in transfected Caco2 cells; format: cell-based, human; conditions: Homo sapiens, Caco-2, 16 h, 1 μM compound, 16 hours, transfected Caco2 cells, luciferase activity relative to DMSO control (=1); read-out: Relative KAI promoter activity
[1] = test system: invasion of colorectal cancer cells; test: In vivo relative invation (invasion; EV and KITENIN controls, no method described); conditions: relative to EV (=1); KIT = KITENIN

| SMILES | fold induction at 1 µM (KAI1 promoter) | In vivo relative invation [1] |
| --- | --- | --- |
| O=C(CNC(=O)c1ccccc1CN1CCCc2ccccc21)c1ccccc1 [Example 297, 2-((3,4-dihydroquinolin-1(2H)-yl)methyl)-N-(2-oxo-2-phenylethyl)benzamide] | 1.33 | 1.231 |
| CN(Cc1ccccc1C(=O)NCC(=O)c1ccccc1)C1CCCCC1 [Example 298, 2-((cyclohexyl(methyl)amino)methyl)-N-(2-oxo-2-phenylethyl)benzamide] | 1.34 | 1.213 |
| O=C(CNC(=O)c1ccccc1CN1CCN(c2ccccc2F)CC1)c1ccccc1 [Example 299, 2-((4-(2-fluorophenyl)piperazin-1-yl)methyl)-N-(2-oxo-2-phenylethyl)benzamide] | 2.17 | 1.068 |
| O=C(CNC(=O)c1ccccc1CN1CCN(c2ncccn2)CC1)c1ccccc1 [Example 300, N-(2-oxo-2-phenylethyl)-2-((4-(pyrimidin-2-yl)piperazin-1-yl)methyl)benzamide] | 1.91 | 0.9869 |
| O=C(CNC(=O)c1ccccc1CN1CCC(N2CCCCC2)CC1)c1ccccc1 [Example 301, 2-([1,4′-bipiperidin]-1′-ylmethyl)-N-(2-oxo-2-phenylethyl)benzamide] | 1.61 | 1.146 |
| O=C(CNC(=O)c1ccccc1CN1CCN(c2ccccn2)CC1)c1ccccc1 [Example 302, N-(2-oxo-2-phenylethyl)-2-((4-(pyridin-2-yl)piperazin-1-yl)methyl)benzamide] | 1.41 | 1.175 |
| C=CCN(CC=C)Cc1ccccc1C(=O)NCC(=O)c1ccccc1 [Example 303, 2-((diallylamino)methyl)-N-(2-oxo-2-phenylethyl)benzamide] | 1.85 | 1.138 |
| O=C(CNC(=O)c1ccccc1CN1CCOCC1)c1ccccc1 [Example 304, 2-(morpholinomethyl)-N-(2-oxo-2-phenylethyl)benzamide] | 1.24 | 1.193 |
| CCOC(=O)N1CCN(Cc2ccccc2C(=O)NCC(=O)c2ccccc2)CC1 [Example 305, ethyl 4-(2-((2-oxo-2-phenylethyl)carbamoyl)benzyl)piperazine-1-carboxylate] | 1.14 | 1.186 |
